Laboratory results taken from patent US20220064238A1, “Methods And Compositions For Modifying Transcription Factor Activity by Targeting The Human Mediator Complex Using Cell Penetrating Memetic Peptides And Methods of Treating Cancer Using The Same” (The Regents of the University of Colorado, a body corporate, priority 2020, published 2022).
Bridge positions count the residues as written; N and C are the ends. Square brackets hold non-standard residues; d marks the D form. Peptide text beside a SMILES is read from it. R8 = C=CCCCCCC[C@@](C)(N)C(=O)O; S5 = C=CCCC[C@](C)(N)C(=O)O

Legend:
cells = conditions: prior analysis; cited from earlier work
[1] = system: pol II occupancy at the p21 locus; experiment: ChIP of RNA polymerase II occupancy at CDKN1A (p21); format: cell-based; conditions: 3 h post-Nutlin, Ser5-phosphorylated pol II ChIP
Excerpt: FIGS. 13A-B. Summary of ChIP experiments, showing that RNA polymerase II occupancy at the p53 target gene CDKN1A (p21) is reduced in cells treated with the bivalent peptide (peptide). A) Time course following Nutlin induction, to determine ideal time point to probe pol II occupancy at the p21 locus. […] However, pol II occupancy is reduced in cells treated with the bivalent peptide. […] Pol II phosphorylated at serine-5 of its C-terminal domain was used for ChIP analysis, because this is a proxy for initiating pol II at gene promoters (start sites). Data represent biological triplicates. Similar results were observed genome-wide, using ChIP-seq, although the timing of induction across p53 target genes will vary (data not shown).

[2] = system: p53 target genes in HCT116 cells; experiment: RNA-Seq / GSEA in HCT116 cells, p53 pathway genes; format: cell-based, human
Method: To circumvent this issue, we used a well-tested electroporation protocol to enhance cell uptake of the bivalent peptide (see Methods). HCT116 cells were evaluated either in the presence of bivalent peptide or vehicle (water), with or without Nutlin-3a (FIG. 3A, B). Nutlin-3a is a small molecule that activates and stabilizes p53 by inhibiting MDM2, a repressor of p53. […] After 3 h Nutlin-3a treatment (or DMSO control, ±bivalent peptide), nuclear RNA was isolated and biological replicate RNA-Seq libraries were prepared (FIG. 9A; Table 1).
A confounding issue with these experiments was that cellular uptake of the bivalent peptide could not be accurately measured and could potentially vary from experiment-to-experiment. To assess this possibility more thoroughly, we completed an additional round of RNA-Seq experiments in control vs. Nutlin-treated HCT116 cells (FIG. 9B; Table 1). These additional experiments (RNA-Seq experiment 2) were completed with a slightly modified protocol that included treatment in serum-free media as an effort to enhance peptide uptake. Importantly, the data from RNA-Seq experiment 2 (biological triplicate; FIG. 10) were consistent with the first series of biological replicates (RNA-Seq experiment 1; FIG. 3C-E) and in each case, repression of p53-dependent transcription by the bivalent peptide tracked with Nutlin induction levels (FIG. 9CE). Nutlin-induced activation of p53 target genes was inhibited in the presence of the bivalent peptide, providing further evidence that the bivalent peptide blocks p53 response in cells. However, the scope and magnitude of the effect was reduced in this second, independent set of RNA-Seq experiments (e.g. compare FIG. 3C, D & FIG. 10C, D). This broadly consistent but variable magnitude effect can also be seen from RNA-Seq reads at specific p53 target genes (RNA-Seq experiment 1, FIG. 4A, B; RNA-Seq experiment 2, FIG. 4C, D). The overall p53 response to Nutlin-3a was reduced in RNA Seq experiment 2 (GSEA p53 pathway NES=2.76 in RNA-Seq experiment 1 vs. NES=1.59 in RNASeq experiment 2), which therefore reduced the transcriptional impact of the bivalent peptide. However, we cannot rule out variable cellular uptake of the bivalent peptide as a contributing factor.
Electroporation of bivalent peptide into HCT116 cells (RNA-Seq experiment 1): Two 6-well plates (HCT116 cells) were grown to about 80% confluency. Cells were then trypsinized, washed with PBS, and resuspended in 150 μL Neon Buffer R. The cells were then split into two groups: No peptide and 10 μM peptide. The cells were then drawn into a 10 μL Neon pipet tip, electroporated and ejected into 2 mL of McCoy's 5A media without antibiotic. For each experiment, two cell electroporation aliquots were added to media containing either 0.1% DMSO (control) or 10 μM Nutlin-3a (in DMSO, to a final concentration of 0.1%). For wells containing cells electroporated with peptide, an additional 200 nM peptide was added to the well to allow for peptide uptake during the experiment. The 6-well plate was then placed back at 37° C. for 3 hours. After 3 hours, cells were scraped from the plates, transferred to a 15 mL conical vial, pelleted at 1,000×g, and washed in 10 mL phosphate buffered saline (PBS) solution. To isolate the nuclei, cells were resuspended in 10 mL lysis buffer (10 mM Tris-HCl, pH 7.4, 2 mM MgCl2, 3 mM CaCl2), 0.5% NP-40, 10% glycerol) and thoroughly mixed. The nuclei were spun down at 1,000×g for 10 minutes, the lysis buffer was removed, and 1 mL of TRIzol was added. The nuclear RNA was isolated as described in the TRIzol instructions, except an additional phenol/chloroform extraction and chloroform-only extraction were performed to reduce contaminants. RNA was precipitated and washed twice with 75% ethanol to further remove contaminants. The RNA was then converted to cDNA using the High Capacity cDNA kit from Thermo Fisher Scientific. […]

basal transcription = experiment: In vitro transcription on naked DNA templates, basal (no activator); format: biochemical, human; conditions: no GAL4-p53, naked DNA templates
Excerpt: To screen peptides for the ability to selectively block p53-dependent transcription, we required an assay that enabled p53-dependent activation but that could also support basal (i.e. activator-independent) transcription. The present inventors had previously established an in vitro transcription assay (using highly purified human factors (FIG. 1A). A key feature of this assay was that both activated and basal transcription could be reconstituted on naked DNA templates (i.e. DNA templates not assembled into chromatin). To adapt this assay for purposes of measuring basal vs. p53-activated transcription, we generated templates with Gal4 DNA binding sites upstream of the adenovirus major late promoter sequence (FIG. 5A, B). Upon titration of a Gal4 DNA Binding Domain (DBD)-p53 Activation Domain (AD; residues 1-70) fusion protein into this system, we observed pol II-dependent transcription that was dependent on p53AD and Mediator (FIG. 5C). Reactions containing Gal4-p53AD generally produced about two- to four-fold more transcripts compared to reactions with no activator (FIG. 5C). Because experiments without Gal4-p53AD produced a low level of “basal” transcription that could be quantitated, this system allowed assessment of both p53-activated and basal transcription. […]

[3] = molecular target: human Mediator complex (human)

GST-VP16AD (residues 411-490), sequence (P08515 1-218, tags or fused parts left off): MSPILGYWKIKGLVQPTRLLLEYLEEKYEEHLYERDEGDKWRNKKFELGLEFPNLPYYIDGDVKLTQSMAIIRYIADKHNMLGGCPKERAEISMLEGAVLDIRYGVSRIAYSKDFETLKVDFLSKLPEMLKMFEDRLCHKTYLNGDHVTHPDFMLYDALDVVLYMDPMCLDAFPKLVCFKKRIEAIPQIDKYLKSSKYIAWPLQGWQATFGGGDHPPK

In the case of `CC(=O)N[C@@H](CCCNC(=N)N)C(=O)N[C@@H](CO)C(=O)N[C@@H](CCC(N)=O)C(=O)N[C@@H](CCC(=O)O)C(=O)N[C@@H](CCCNC(=N)N)C(=O)N[C@@H](Cc1ccccc1)C(=O)N[C@]1(C)CCCCCCC=CCCC[C@@](C)(C(=O)N[C@@H](CCCNC(=N)N)C(=O)N[C@@H](CCCNC(=N)N)C(N)=O)NC(=O)[C@H](CC(C)C)NC(=O)[C@H](CCCNC(=N)N)NC(=O)[C@H](CCCCN)NC(=O)[C@H](Cc2c[nH]c3ccccc23)NC(=O)[C@H](CC(C)C)NC(=O)[C@H](CC(=O)O)NC1=O` [BP1.4] (Ac-RSQERF[R8]DLWKRL[S5]RR-NH2; staple 7-14; C-terminus assumed), the cellular uptake (cells) is given as “not effectively taken up by cells”.
In the case of `COc1ccc(C2=N[C@@H](c3ccc(Cl)cc3)[C@@H](c3ccc(Cl)cc3)N2C(=O)N2CCNC(=O)C2)c(OC(C)C)c1` [Nutlin-3a, reference compound], the “pol II occupancy at the p21 locus” value [1] is reported as “strongly induced pol II at the p21 locus”, the “expression of p53 target genes” value ([2]; Nutlin-3a 10 μM, 3 h, HCT116) is reported as “induced expression of p53 target genes” and the “GSEA p53 pathway NES, Nutlin response without peptide” value ([2]; RNA-Seq experiment 1) is reported as 2.76. For the same compound, the “GSEA p53 pathway NES, Nutlin response without peptide” value ([2]; RNA-Seq experiment 2) was 1.59.
With “BP1.5: N-acetylated hydrocarbon-stapled penta-arg p53AD1 mimic, SEQ ID NO. 5 RRETFZDRWKRLXRN” the “effect on basal transcription, initial screen” value (basal transcription; 5 μM peptide) was “did not affect basal transcription” and the “effect on basal transcription, follow-up experiments” value (basal transcription) was “negatively affected basal transcription to some degree”.
“GST-VP16AD (residues 411-490) (from UniProt P08515 1-218; P06492 411-490)” showed a fold change of Mediator-bound VP16 with bivalent peptide vs. without [3] of 1.67 fold.
